This is an account of results in publication PMC6251817 (Acta Pharmaceutica Sinica. B, 2018).

The target in this assay is T1, PTP1B (recombinant human GST-PTP1B) (Homo sapiens, UniProt P18031).
T1 sequence (P18031 1-435): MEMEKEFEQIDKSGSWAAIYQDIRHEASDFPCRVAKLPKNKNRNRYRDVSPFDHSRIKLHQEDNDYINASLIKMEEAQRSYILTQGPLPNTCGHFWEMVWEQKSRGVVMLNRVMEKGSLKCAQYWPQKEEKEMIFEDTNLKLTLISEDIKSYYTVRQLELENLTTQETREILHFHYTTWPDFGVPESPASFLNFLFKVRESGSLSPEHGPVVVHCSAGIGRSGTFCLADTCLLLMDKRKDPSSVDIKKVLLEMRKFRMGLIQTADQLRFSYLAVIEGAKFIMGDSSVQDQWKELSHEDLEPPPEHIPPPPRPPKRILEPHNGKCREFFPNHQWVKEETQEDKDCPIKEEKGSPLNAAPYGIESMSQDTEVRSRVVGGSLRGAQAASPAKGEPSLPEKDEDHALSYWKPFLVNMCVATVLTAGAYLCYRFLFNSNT
Put plainly: pNPP hydrolysis, absorbance […] nm. In kind it is biochemical.
Turning to `CN(C)c1ccc(C(=O)CCc2ccc(C(=O)Nc3ccc(C(=O)Nc4ccccc4)cc3)cc2)cc1` [compound 4, 4-(3-(4-(Dimethylamino)phenyl)-3-oxopropyl)-N-(4-(phenylcarbamoyl)phenyl)benzamide], the IC50 was 4.9 µM.

`COc1ccc(C(=O)CCc2ccc(C(=O)Nc3ccc(C(=O)Nc4ccc(N5CCOCC5)cc4)cc3)cc2)cc1` [compound 8, 4-(3-(4-Methoxyphenyl)-3-oxopropyl)-N-(4-((4-morpholinophenyl)carbamoyl)phenyl)benzamide]: the concentration for half-maximal inhibition (IC50) amounted to 7.26 µM.

`O=C(/C=C/c1ccc(C(=O)Nc2ccc(C(=O)Nc3ccccc3)cc2)cc1)c1ccc(F)cc1` [compound 9, (E)-4-(3-(4-Fluorophenyl)-3-oxoprop-1-en-1-yl)-N-(4-(phenylcarbamoyl)phenyl)benzamide]: the IC50 came to 8.81 µM.

On to `Cc1ccc(C(=O)/C=C/c2ccc(C(=O)Nc3ccc(C(=O)Nc4ccccc4)cc3)cc2)cc1` [compound 10, (E)-4-(3-Oxo-3-(p-tolyl)prop-1-en-1-yl)-N-(4-(phenylcarbamoyl)phenyl)benzamide], for which the IC50 came to 5.23 µM.

Consider `COc1ccc(/C=C/C(=O)c2ccc(C(=O)Nc3ccc(C(=O)Nc4ccccc4)cc3)cc2)cc1` [compound 15, (E)-4-(3-(4-Methoxyphenyl)acryloyl)-N-(4-(phenylcarbamoyl)phenyl)benzamide], for which the IC50 is 7.74 µM.

Regarding `COc1ccc(C(=O)NCc2ccc(C(=O)Nc3ccc(C(=O)Nc4ccccc4)cc3)cc2)cc1` [compound 18, 4-Methoxy-N-(4-((4-(phenylcarbamoyl)phenyl)carbamoyl)benzyl)benzamide], the IC50 was determined as 8.16 µM.

Turning to `COc1ccc(C(=O)NCc2ccc(C(=O)Nc3ccc(C(=O)Nc4ccc(N5CCOCC5)cc4)cc3)cc2)cc1` [compound 20, 4-Methoxy-N-(4-((4-((4-morpholinophenyl)carbamoyl)phenyl)carbamoyl)benzyl)benzamide], the IC50 worked out at 6.85 µM.

For the compound `COc1ccc(C(=O)NCc2ccc(C(=O)Nc3ccc(C(=O)Nc4ccccc4OC)cc3)cc2)cc1` [compound 23, 4-Methoxy-N-(4-((4-((2-methoxyphenyl)carbamoyl)phenyl)carbamoyl)benzyl)benzamide], the IC50 came to 4.76 µM.

For `COc1ccc(CC(=O)Nc2ccc(NC(=O)c3ccc(CCC(=O)c4ccc(OC)cc4)cc3)cc2)cc1` [compound 27, 4-(3-(4-Methoxyphenyl)-3-oxopropyl)-N-(4-(2-(4-methoxyphenyl)acetamido)phenyl)benzamide], the IC50 worked out at 4.19 µM.

Consider `COc1ccc(CC(=O)Nc2ccc(NC(=O)c3ccc(/C=C/C(=O)c4ccc(OC)cc4)cc3)cc2)cc1` [compound 28, (E)-4-(3-(4-Methoxyphenyl)-3-oxoprop-1-en-1-yl)-N-(4-(2-(4-methoxyphenyl)acetamido)phenyl)benzamide], for which the IC50 stood at 5.91 µM.

As for `COc1ccc(/C=C/C(=O)c2ccc(C(=O)Nc3ccc(NC(=O)Cc4ccc(OC)cc4)cc3)cc2)cc1` [compound 29, (E)-N-(4-(2-(4-Methoxyphenyl)acetamido)phenyl)-4-(3-(4-methoxyphenyl)acryloyl)benzamide], the 50% inhibitory concentration (IC50) stood at 4.7 µM.

For `COc1ccc(C(=O)NCc2ccc(C(=O)Nc3ccc(NC(=O)c4ccccc4)cc3)cc2)cc1` [compound 31, N-(4-Benzamidophenyl)-4-((4-methoxybenzamido)methyl)benzamide], the IC50 was found to be 6.22 µM.

With `COc1ccc(C(=O)CCc2ccc(C(=O)Nc3cccc(C(=O)Nc4cc(OC)cc(OC)c4)c3)cc2)cc1` [compound 33, N-(3,5-Dimethoxyphenyl)-3-(4-(3-(4-methoxyphenyl)-3-oxopropyl)benzamido)benzamide], the IC50 was determined as 24.3 µM.

What is called IC50 is the point on the concentration scale where inhibition reaches its midpoint.
